In patent EP0349354A1, “Peptides PF10 to PF19 from a retro virus HIV, method for the synthesis of these peptides and their use, particularly in diagnostics” (INSTITUT PASTEUR, priority 1988, dated 1990):

System: anticorps anti-nef
Assay: ELISA for detection of anti-nef antibodies on coated peptides or nef
Format: binding, humain
Settings: for nombre de sérums anti-nef positifs ayant réagi: out of 31 anti-nef positive sera; for intensité de l'immunoréactivité (OD), Serum 1: Serum 1, anti-nef positive; for intensité de l'immunoréactivité (OD), Serum 1 / intensité de l'immunoréactivité (OD), Serum 2 / intensité de l'immunoréactivité (OD), Serum 3 / intensité de l'immunoréactivité (OD), Serum 4 / intensité de l'immunoréactivité (OD), Serum 5 / intensité de l'immunoréactivité (OD), Serum 6 / intensité de l'immunoréactivité (OD), Serum 7 / intensité de l'immunoréactivité (OD), Serum 8 / intensité de l'immunoréactivité (OD), Serum 9 / intensité de l'immunoréactivité (OD), Serum 10 / intensité de l'immunoréactivité (OD), Serum 11 / intensité de l'immunoréactivité (OD), Serum 12 / intensité de l'immunoréactivité (OD), Serum 13 / intensité de l'immunoréactivité (OD), Serum 14 / intensité de l'immunoréactivité (OD), Serum 15 / intensité de l'immunoréactivité (OD), Serum 16 / intensité de l'immunoréactivité (OD), Serum 17 / intensité de l'immunoréactivité (OD), Serum 18 / intensité de l'immunoréactivité (OD), Serum 19 / intensité de l'immunoréactivité (OD), Serum 20 / intensité de l'immunoréactivité (OD), Serum 21 / intensité de l'immunoréactivité (OD), Serum 22 / intensité de l'immunoréactivité (OD), Serum 23 / intensité de l'immunoréactivité (OD), Serum 24 / intensité de l'immunoréactivité (OD), Serum 25 / intensité de l'immunoréactivité (OD), Serum 26 / intensité de l'immunoréactivité (OD), Serum 27 / intensité de l'immunoréactivité (OD), Serum 28 / intensité de l'immunoréactivité (OD), Serum 29 / intensité de l'immunoréactivité (OD), Serum 30 / intensité de l'immunoréactivité (OD), Serum 31 / intensité de l'immunoréactivité (OD), Serum 32 / intensité de l'immunoréactivité (OD), Serum 33: 500 ng coated per well; for intensité de l'immunoréactivité (OD), Serum 2: Serum 2, anti-nef positive; for intensité de l'immunoréactivité (OD), Serum 3: Serum 3, anti-nef positive; for intensité de l'immunoréactivité (OD), Serum 4: Serum 4, anti-nef positive; for intensité de l'immunoréactivité (OD), Serum 5: Serum 5, anti-nef positive; for intensité de l'immunoréactivité (OD), Serum 6: Serum 6, anti-nef positive; for intensité de l'immunoréactivité (OD), Serum 7: Serum 7, anti-nef positive; for intensité de l'immunoréactivité (OD), Serum 8: Serum 8, anti-nef positive; for intensité de l'immunoréactivité (OD), Serum 9: Serum 9, anti-nef positive; for intensité de l'immunoréactivité (OD), Serum 10: Serum 10, anti-nef positive; for intensité de l'immunoréactivité (OD), Serum 11: Serum 11, anti-nef positive; for intensité de l'immunoréactivité (OD), Serum 12: Serum 12, anti-nef positive; for intensité de l'immunoréactivité (OD), Serum 13: Serum 13, anti-nef positive; for intensité de l'immunoréactivité (OD), Serum 14: Serum 14, anti-nef positive; for intensité de l'immunoréactivité (OD), Serum 15: Serum 15, anti-nef positive; for intensité de l'immunoréactivité (OD), Serum 16: Serum 16, anti-nef positive; for intensité de l'immunoréactivité (OD), Serum 17: Serum 17, anti-nef positive; for intensité de l'immunoréactivité (OD), Serum 18: Serum 18, anti-nef positive; for intensité de l'immunoréactivité (OD), Serum 19: Serum 19, anti-nef positive; for intensité de l'immunoréactivité (OD), Serum 20: Serum 20, anti-nef positive; for intensité de l'immunoréactivité (OD), Serum 21: Serum 21, anti-nef positive; for intensité de l'immunoréactivité (OD), Serum 22: Serum 22, anti-nef positive; for intensité de l'immunoréactivité (OD), Serum 23: Serum 23, anti-nef positive; for intensité de l'immunoréactivité (OD), Serum 24: Serum 24, anti-nef positive; for intensité de l'immunoréactivité (OD), Serum 25: Serum 25, anti-nef positive; for intensité de l'immunoréactivité (OD), Serum 26: Serum 26, anti-nef positive; for intensité de l'immunoréactivité (OD), Serum 27: Serum 27, anti-nef positive; for intensité de l'immunoréactivité (OD), Serum 28: Serum 28, anti-nef positive; for intensité de l'immunoréactivité (OD), Serum 29: Serum 29, anti-nef positive; for intensité de l'immunoréactivité (OD), Serum 30: Serum 30, anti-nef positive; for intensité de l'immunoréactivité (OD), Serum 31: Serum 31, anti-nef positive; for intensité de l'immunoréactivité (OD), Serum 32: Serum 32, anti-nef negative control serum; for intensité de l'immunoréactivité (OD), Serum 33: Serum 33, anti-nef negative control serum
Protocol: Des plaques de microtitration à 96 puits ont été recouvertes une nuit avec 500 ng de protéine nef bactérienne, à 37°C ou avec 500 ng de peptides synthétiques par puits dans 50µl de PBS à pH 7,4. Après saturation avec 400 µl de PBS pH 7,4, contenant 5% de caséine, durant 1 heure à 37°C et lavage avec PBS à pH 7,4, 0,5% de BSA, 0,01% tween, 50 µl de sérums à différentes dilutions ont été ajoutés pendant 2 heures à 37°C. Après le rinçage, 50µl de complexes d'IgG de souris anti-humaine-(H + L)-peroxydase 1:1000 ont été incubés pendant 1 heure à 37°C. Après un nouveau rinçage, 100µl de OPD ont été ajoutés pendant 30mn à température ambiante dans l'obscurité. La réaction de l'enzyme a été arrêtée par addition de 50µl d'acide sulfurique 4N et la densité optique des plaques a été lue à 492 nm/620 nm. Les plaques recouvertes avec la caséine ont été utilisées comme contrôle négatif.
En vue d'étudier la possibilité d'utiliser des peptides synthétiques en tant qu'antigènes pour la détection d'anticorps anti-nef chez des patients infectés par HIV, 8 peptides synthétiques couvrant la totalité de la séquence de la protéine nef de HIV-1 (figure 4) ont été utilisés dans un test ELISA avec 31 sérums anti-nef positifs et 2 sérums anti-nef négatifs utilisés comme contrôle. Les recombinants nef ont été utilisés comme contrôle positif dans les tests ELISA et la caséine a été utilisée comme contrôle négatif. Les résultats de ces expériences sont donnés dans le tableau 4 qui illustre l'essai suivant: Essai ELISA sur 31 sérums anti-nef-positifs et 2 sérums anti-nef- négatifs, soit pré-recouverts avec des peptides synthétiques (PF 11 à PF 18), soit en utilisant nef, la caséine ou un mélange de peptides PF 12 et PF 17. Les sérums ont été sélectionnés au hasard parmi des sérums anti-nef positifs et anti-nefs négatifs testés par la méthode RIA en utilisant ¹²⁵I nef. L'intensité de l'immunoradioactivité est notée "-" pour une densité optique (OD) inférieure à 0,2; "+" pour OD = 0,2 à 0,4; "++" pour OD = 0,4 à 0,8 et "+++" pour OD = 0,8 à 2,0.

Row | Sequence | nombre de sérums anti-nef positifs ayant réagi (ELISA) | intensité de l'immunoréactivité (OD), Serum 1 | intensité de l'immunoréactivité (OD), Serum 2 | intensité de l'immunoréactivité (OD), Serum 3 | intensité de l'immunoréactivité (OD), Serum 4 | intensité de l'immunoréactivité (OD), Serum 5 | intensité de l'immunoréactivité (OD), Serum 6 | intensité de l'immunoréactivité (OD), Serum 7 | intensité de l'immunoréactivité (OD), Serum 8 | intensité de l'immunoréactivité (OD), Serum 9 | intensité de l'immunoréactivité (OD), Serum 10 | intensité de l'immunoréactivité (OD), Serum 11 | intensité de l'immunoréactivité (OD), Serum 12 | intensité de l'immunoréactivité (OD), Serum 13 | intensité de l'immunoréactivité (OD), Serum 14 | intensité de l'immunoréactivité (OD), Serum 15 | intensité de l'immunoréactivité (OD), Serum 16 | intensité de l'immunoréactivité (OD), Serum 17 | intensité de l'immunoréactivité (OD), Serum 18 | intensité de l'immunoréactivité (OD), Serum 19 | other results
1 | XCGYFPDWQNYTPGPGVRYPLTFGWCYKLVPVEPDKVEEANKGENTSLL HPVZ [PF15, protéine F HIV-1, séquence 118-167] | 4 | - (pour une densité optique (OD) inférieure à 0,2) | - (pour une densité optique (OD) inférieure à 0,2) | - (pour une densité optique (OD) inférieure à 0,2) | - (pour une densité optique (OD) inférieure à 0,2) | + (pour OD = 0,2 à 0,4) | + (pour OD = 0,2 à 0,4) | - (pour une densité optique (OD) inférieure à 0,2) | - (pour une densité optique (OD) inférieure à 0,2) | - (pour une densité optique (OD) inférieure à 0,2) | - (pour une densité optique (OD) inférieure à 0,2) | - (pour une densité optique (OD) inférieure à 0,2) | - (pour une densité optique (OD) inférieure à 0,2) | - (pour une densité optique (OD) inférieure à 0,2) | - (pour une densité optique (OD) inférieure à 0,2) | - (pour une densité optique (OD) inférieure à 0,2) | - (pour une densité optique (OD) inférieure à 0,2) | - (pour une densité optique (OD) inférieure à 0,2) | - (pour une densité optique (OD) inférieure à 0,2) | ++ (pour OD = 0,4 à 0,8) | intensité de l'immunoréactivité (OD), Serum 20: - (pour une densité optique (OD) inférieure à 0,2); intensité de l'immunoréactivité (OD), Serum 21: - (pour une densité optique (OD) inférieure à 0,2); intensité de l'immunoréactivité (OD), Serum 22: ++ (pour OD = 0,4 à 0,8); intensité de l'immunoréactivité (OD), Serum 23: - (pour une densité optique (OD) inférieure à 0,2); intensité de l'immunoréactivité (OD), Serum 24: - (pour une densité optique (OD) inférieure à 0,2); intensité de l'immunoréactivité (OD), Serum 25: - (pour une densité optique (OD) inférieure à 0,2); intensité de l'immunoréactivité (OD), Serum 26: - (pour une densité optique (OD) inférieure à 0,2); intensité de l'immunoréactivité (OD), Serum 27: - (pour une densité optique (OD) inférieure à 0,2); intensité de l'immunoréactivité (OD), Serum 28: - (pour une densité optique (OD) inférieure à 0,2); intensité de l'immunoréactivité (OD), Serum 29: - (pour une densité optique (OD) inférieure à 0,2); intensité de l'immunoréactivité (OD), Serum 30: - (pour une densité optique (OD) inférieure à 0,2); intensité de l'immunoréactivité (OD), Serum 31: - (pour une densité optique (OD) inférieure à 0,2); intensité de l'immunoréactivité (OD), Serum 32: - (pour une densité optique (OD) inférieure à 0,2); intensité de l'immunoréactivité (OD), Serum 33: - (pour une densité optique (OD) inférieure à 0,2)
2 | XCKGGLEGLIHSQRRQDILDLWIYHTQGYFPDZ [PF18] | 10 | - (pour une densité optique (OD) inférieure à 0,2) | - (pour une densité optique (OD) inférieure à 0,2) | - (pour une densité optique (OD) inférieure à 0,2) | - (pour une densité optique (OD) inférieure à 0,2) | + (pour OD = 0,2 à 0,4) | + (pour OD = 0,2 à 0,4) | - (pour une densité optique (OD) inférieure à 0,2) | - (pour une densité optique (OD) inférieure à 0,2) | - (pour une densité optique (OD) inférieure à 0,2) | - (pour une densité optique (OD) inférieure à 0,2) | - (pour une densité optique (OD) inférieure à 0,2) | - (pour une densité optique (OD) inférieure à 0,2) | - (pour une densité optique (OD) inférieure à 0,2) | - (pour une densité optique (OD) inférieure à 0,2) | - (pour une densité optique (OD) inférieure à 0,2) | - (pour une densité optique (OD) inférieure à 0,2) | - (pour une densité optique (OD) inférieure à 0,2) | ++ (pour OD = 0,4 à 0,8) | + (pour OD = 0,2 à 0,4) | part des sérums anti-nef positifs avec immunoréactivité significative (ELISA, 31 anti-nef positive sera): 1/3; intensité de l'immunoréactivité (OD), Serum 20: + (pour OD = 0,2 à 0,4); intensité de l'immunoréactivité (OD), Serum 21: +++ (pour OD = 0,8 à 2,0); intensité de l'immunoréactivité (OD), Serum 22: +++ (pour OD = 0,8 à 2,0); intensité de l'immunoréactivité (OD), Serum 23: - (pour une densité optique (OD) inférieure à 0,2); intensité de l'immunoréactivité (OD), Serum 24: ++ (pour OD = 0,4 à 0,8); intensité de l'immunoréactivité (OD), Serum 25: + (pour OD = 0,2 à 0,4); intensité de l'immunoréactivité (OD), Serum 26: - (pour une densité optique (OD) inférieure à 0,2); intensité de l'immunoréactivité (OD), Serum 27: - (pour une densité optique (OD) inférieure à 0,2); intensité de l'immunoréactivité (OD), Serum 28: - (pour une densité optique (OD) inférieure à 0,2); intensité de l'immunoréactivité (OD), Serum 29: - (pour une densité optique (OD) inférieure à 0,2); intensité de l'immunoréactivité (OD), Serum 30: +++ (pour OD = 0,8 à 2,0); intensité de l'immunoréactivité (OD), Serum 31: - (pour une densité optique (OD) inférieure à 0,2); intensité de l'immunoréactivité (OD), Serum 32: - (pour une densité optique (OD) inférieure à 0,2); intensité de l'immunoréactivité (OD), Serum 33: - (pour une densité optique (OD) inférieure à 0,2)
